Where a name gives a salt, the structure may show the parent alone.

In general, melting point refers to the temperature, or range, at which the solid turns liquid. On to `CCOc1cc2c(cc1OC)C(c1cnc(N(C)C)nc1OC)=N[C@@H]1CC[C@@H](O)C[C@H]21` (as salt: tartrate) [compound 11, (2R,4aR,10bR)-6-(2-Dimethylamino-4-methoxy-pyrimidin-5-yl)-9-ethoxy-8-methoxy-1,2,3,4,4a, 10b-hexahydro-phenanthridin-2-ol], for which the melting point was 249 °C.
Turning to `CCOc1cc2c(cc1OC)C(c1ccc(OC)nc1)=N[C@@H]1CC[C@@H](O)C[C@H]21` (as salt: fumarate) [compound 10, (2R,4aR,10bR)-9-Ethoxy-8-methoxy-6-(6-methoxy-pyridin-3-yl)-1,2,3,4,4a, 10b-hexahydro-phenanthridin-2-ol], the melting point was found to be 173 °C.
Under `CCOc1cc2c(cc1OC)C(c1cnc(N(C)C)nc1)=N[C@@H]1CC[C@@H](O)C[C@H]21` (as salt: fumarate) [compound 13, (2R,4aR,10bR)-6-(2-Dimethylamino-pyrimidin-5-yl)-9-ethoxy-8-methoxy-1,2,3,4,4a, 10b-hexahydro-phenanthridin-2-ol] stands 210 °C; under `CCOc1cc2c(cc1OC)C(c1ccc(OC)nc1OC)=N[C@@H]1CC[C@@H](O)C[C@H]21` (as salt: hydrochloride) [compound 8, (2R,4aR,10bR)-6-(2,6-Dimethoxy-pyridin-3-yl)-9-ethoxy-8-methoxy-1,2,3,4,4a, 10b-hexahydro-phenanthridin-2-ol], 164 °C; under `CCOc1cc2c(cc1OC)C(c1ccc(OC)nc1OC)=N[C@@H]1CC[C@@H](O)C[C@H]21` (as salt: tosylate) [compound 8, (2R,4aR,10bR)-6-(2,6-Dimethoxy-pyridin-3-yl)-9-ethoxy-8-methoxy-1,2,3,4,4a, 10b-hexahydro-phenanthridin-2-ol], 218 °C.
Under `CCOc1cc2c(cc1OC)C(c1ccc(OC)nc1OC)=N[C@@H]1CC[C@@H](O)C[C@H]21` (as salt: mesylate) [compound 8, (2R,4aR,10bR)-6-(2,6-Dimethoxy-pyridin-3-yl)-9-ethoxy-8-methoxy-1,2,3,4,4a, 10b-hexahydro-phenanthridin-2-ol] stands 193 °C; under `CCOc1cc2c(cc1OC)C(c1ccc(-n3cccn3)nc1)=N[C@@H]1CC[C@@H](O)C[C@H]21` (as salt: fumarate) [compound 3, (2R,4aR,10bR)-9-Ethoxy-8-methoxy-6-(6-pyrazol-1-yl-pyridin-3-yl)-1,2,3,4,4a, 10b-hexahydro-phenanthridin-2-ol], 170 °C; under `CCOc1cc2c(cc1OC)C(c1ccc(=O)n(C)c1)=N[C@@H]1CC[C@@H](O)C[C@H]21` [compound 9, 5-((2R,4aR,10bR)-9-Ethoxy-2-hydroxy-8-methoxy-1,2,3,4,4a, 10b-hexahydro-phenanthridin-6-yl)-1-methyl-1H-pyridin-2-one], 147 °C.
Molecule `CCOc1cc2c(cc1OC)C(c1ccc(=O)n(C)c1)=N[C@@H]1CC[C@@H](O)C[C@H]21` (as salt: fumarate) [compound 9, 5-((2R,4aR,10bR)-9-Ethoxy-2-hydroxy-8-methoxy-1,2,3,4,4a, 10b-hexahydro-phenanthridin-6-yl)-1-methyl-1H-pyridin-2-one] registered a melting point of 156 °C.
`CCOc1cc2c(cc1OC)C(c1cnc(N(C)C)nc1)=N[C@@H]1CC[C@@H](O)C[C@H]21` [compound 13, (2R,4aR,10bR)-6-(2-Dimethylamino-pyrimidin-5-yl)-9-ethoxy-8-methoxy-1,2,3,4,4a, 10b-hexahydro-phenanthridin-2-ol] had a melting point of 112 °C.
Under `CCOc1cc2c(cc1OC)C(c1cnc(OC)cc1OC)=N[C@@H]1CC[C@@H](O)C[C@H]21` (as salt: fumarate) [compound 12, (2R,4aR,10bR)-6-(4,6-Dimethoxy-pyridin-3-yl)-9-ethoxy-8-methoxy-1,2,3,4,4a, 10b-hexahydro-phenanthridin-2-ol] stands 194 °C.
With `CCOc1cc2c(cc1OC)C(c1cnc(N(C)C)nc1)=N[C@@H]1CC[C@@H](O)C[C@H]21` (as salt: tartrate) [compound 13, (2R,4aR,10bR)-6-(2-Dimethylamino-pyrimidin-5-yl)-9-ethoxy-8-methoxy-1,2,3,4,4a, 10b-hexahydro-phenanthridin-2-ol], the melting point was determined as 206 °C.
On to `CCOc1cc2c(cc1OC)C(c1cnc(OC)nc1)=N[C@@H]1CC[C@@H](O)C[C@H]21` [compound 4, (2R,4aR,10bR)-9-Ethoxy-8-methoxy-6-(2-methoxy-pyrimidin-5-yl)-1,2,3,4,4a, 10b-hexahydro-phenanthridin-2-ol], for which the melting point turned out to be 124 °C.
For `CCOc1cc2c(cc1OC)C(c1ccc(=O)n(C)c1)=N[C@@H]1CC[C@@H](O)C[C@H]21` (as salt: tartrate) [compound 9, 5-((2R,4aR,10bR)-9-Ethoxy-2-hydroxy-8-methoxy-1,2,3,4,4a, 10b-hexahydro-phenanthridin-6-yl)-1-methyl-1H-pyridin-2-one], the melting point turned out to be 205 °C.
Under `CCOc1cc2c(cc1OC)C(c1cnc(N(C)C)nc1OC)=N[C@@H]1CC[C@@H](O)C[C@H]21` (as salt: fumarate) [compound 11, (2R,4aR,10bR)-6-(2-Dimethylamino-4-methoxy-pyrimidin-5-yl)-9-ethoxy-8-methoxy-1,2,3,4,4a, 10b-hexahydro-phenanthridin-2-ol] stands 123 °C.
On to `CCOc1cc2c(cc1OC)C(c1ccc(OC)nc1OC)=N[C@@H]1CC[C@@H](O)C[C@H]21` (as salt: hydrobromid) [compound 8, (2R,4aR,10bR)-6-(2,6-Dimethoxy-pyridin-3-yl)-9-ethoxy-8-methoxy-1,2,3,4,4a, 10b-hexahydro-phenanthridin-2-ol], for which the melting point turned out to be 163 °C.
With `CCOc1cc2c(cc1OC)C(c1cnc(N(C)C)nc1OC)=N[C@@H]1CC[C@@H](O)C[C@H]21` [compound 11, (2R,4aR,10bR)-6-(2-Dimethylamino-4-methoxy-pyrimidin-5-yl)-9-ethoxy-8-methoxy-1,2,3,4,4a, 10b-hexahydro-phenanthridin-2-ol], the melting point is 124 °C.
